Values quoted from earlier work in patent US9333171B2, “Controlled-release CNS modulating compositions and methods for the treatment of otic disorders” (Otonomy, Inc., priority 2008, dated 2016).

Legend:
V2-R = conditions: infusion into the scala tympani
guinea pigs = conditions: chronic administration in guinea pigs

Row | Compound | Effect on Meniere's disease symptoms (V2-R) | Induction of endolymphatic hydrops (guinea pigs)
1 | Cc1ccccc1C(=O)Nc1ccc(C(=O)N2CCCC(N(C)C)c3ccccc32)cc1 (centres unmarked) [OPC-31260] | marked reduction of Meniere's disease symptoms | 
2 | NC(=O)CC[C@@H]1NC(=O)[C@H](Cc2ccccc2)NC(=O)[C@H](Cc2ccc(O)cc2)NC(=O)[C@@H](N)CSSC[C@@H](C(=O)N2CCC[C@H]2C(=O)N[C@@H](CCCN=C(N)N)C(=O)NCC(N)=O)NC(=O)[C@H](CC(N)=O)NC1=O [VP, vasopressin] |  | induce endolymphatic hydrops
